Calls of active or inactive are those of the source. No cut-off for these calls is given here. Peptide text beside a SMILES is read from it. * marks the point of attachment. Cbz = O=C(OCc1ccccc1)*
Key:
[1] = tested on: SW480; assay: Cytotoxicity against human SW480 cells assessed as reduction in cell viability after 48 hrs by MTS assay; format: functional, cell-based; conditions: SW480, 48 h
[2] = Antioxidant activity assessed as DPPH radical scavenging activity at 50 uM after 1 hr; format: functional
[3] = tested on: RAW264.7; assay: Antiinflammatory activity in mouse RAW264.7 cells assessed as reduction in LPS-induced NO production at 25 uM preincubated for 1 hr followed by LPS stimulation measured after 18 hrs by Griess assay; format: functional, cell-based
[4] = tested on: MCF7; assay: Cytotoxicity against human MCF7 cells assessed as reduction in cell viability after 48 hrs by MTS assay; format: functional, cell-based; conditions: MCF7, 48 h
[5] = tested on: SMMC-7721; assay: Cytotoxicity against human SMMC7721 cells assessed as reduction in cell viability after 48 hrs by MTS assay; format: functional, cell-based; conditions: SMMC-7721, 48 h
[6] = tested on: RAW264.7; assay: Inhibition of LPS-stimulated ROS production in mouse RAW264.7 cells at 25 ug/ml preincubated for 1 hr followed by LPS stimulation measured after 18 hrs by DCFH-DA probe based flow cytometry; format: functional, cell-based
[7] = tested on: HL-60; assay: Cytotoxicity against human HL60 cells assessed as reduction in cell viability after 48 hrs by MTS assay; format: functional, cell-based; conditions: HL-60, 48 h
[8] = tested on: A549; assay: Cytotoxicity against human A549 cells assessed as reduction in cell viability after 48 hrs by MTS assay; format: functional, cell-based; conditions: A549, 48 h
[9] = tested on: RAW264.7; assay: Antiinflammatory activity in mouse RAW264.7 cells assessed as reduction in LPS-induced NO production preincubated for 1 hr followed by LPS stimulation measured after 18 hrs by Griess assay; format: functional, cell-based
[10] = tested on: RAW264.7; assay: Antiinflammatory activity in mouse RAW264.7 cells assessed as reduction in LPS-induced NO production at 25 ug/ml preincubated for 1 hr followed by LPS stimulation measured after 18 hrs by DAF-FMDA probe based flow cytometry; format: functional, cell-based
[11] = Antioxidant activity assessed as DPPH radical scavenging activity at 25 ug/ml after 1 hr; format: functional

Structure (SMILES) | IC50 [1] [µM] | Activity [2] [%] | Activity [3] | IC50 [4] [µM] | IC50 [5] [µM] | inhibition [6] | IC50 [7] [µM] | IC50 [8] [µM] | IC50 [9] [µM] | Activity [10] | Activity [11] [%]
COc1ccc(CCc2cc(OC)c3c(c2)O[C@@H](c2ccc(O)c(OC)c2)[C@H](CO)O3)cc1 | > 40 | 9.56 | inactive | > 40 | > 40 | inactive | > 40 | > 40 |  |  | 
COc1cc(CCc2ccc(O)cc2)cc(O)c1-c1c(OC)cc([C@@H]2OO[C@H]2CO)cc1OC | > 40 | 37.6 |  | 19.4 | 34.4 | Active | 23.5 | 20.8 | 21.4 | inactive | 
Cc1c(C)c2c(c(C)c1O)CCC(C)(C(=O)O)O2 (stereo unspecified) |  |  |  |  |  |  |  |  |  |  | 95.5
CC(C)[C@H]1[C@@H]2C(=O)O[C@H]1[C@@]1(O)N(C)C[C@H]3CC[C@@H]2[C@]31C | > 40 |  | inactive | > 40 | > 40 |  | > 40 | > 40 |  |  | 
CC(C)C1=C(O)C(=O)[C@@]2(C)[C@@H]3CC[C@H]2[C@H]1C(=O)N(C)C3 | > 40 |  | inactive | > 40 | > 40 |  | > 40 | > 40 |  |  | 
COc1ccc(CCc2cc(OC)c(O[C@H](CO)[C@@H](O)c3ccc(O)c(OC)c3)c(OC)c2)cc1 | > 40 | 27.6 | inactive | > 40 | > 40 | Active | > 40 | > 40 |  |  | 
CC(C)[C@@H]1[C@@H]([C@@H]2CC[C@@H]3CN(C)C(=O)[C@@]32C)C(=O)O[C@H]1O | > 40 |  | inactive | > 40 | > 40 |  | > 40 | > 40 |  |  | 
CC(C)[C@@H]1[C@H]2OC(=O)[C@@H]1[C@@H]1CC[C@@H]3CN(C)[C@H]2[C@@]31C | > 40 |  | inactive | > 40 | > 40 |  | > 40 | > 40 |  |  | 
CC(C)C1=C(O)C(=O)[C@@]2(C)[C@@H]3CC[C@H]2[C@H]1C(=O)NC3 | > 40 |  | inactive | > 40 | > 40 |  | > 40 | > 40 |  |  | 
COc1ccc(CCc2cc(O)c(-c3c(OC)cc([C@@H]4OO[C@H]4CO)cc3OC)c(OC)c2)cc1 | 5.3 | 18.1 | inactive | 4.7 | 5.1 | Active | 2.3 | 4.4 |  |  | 
CC(C)C[C@@H](C=O)NC(=O)[C@H](CC(C)C)NC(=O)[C@H](CC(C)C)NC(=O)OCc1ccccc1 [MG-132] (Cbz-Leu-Leu-Leu-aldehyde) |  |  |  |  |  |  |  |  | 0.2 |  | 
CC(=O)O[C@H]1C(=O)[C@@]2(C)[C@H]([C@H](OC(=O)c3ccccc3)[C@]3(O)C[C@H](OC(=O)[C@H](O)[C@@H](NC(=O)c4ccccc4)c4ccccc4)C(C)=C1C3(C)C)[C@]1(OC(C)=O)CO[C@@H]1C[C@@H]2O [PACLITAXEL] | < 0.008 |  |  | < 0.008 | < 0.008 |  | < 0.008 | < 0.008 |  |  | 
COC(=O)/C(=C(/C(=O)O)C(C)C)[C@@H]1CC[C@@H]2CN(C)C(=O)[C@@]21C | > 40 |  | inactive | > 40 | > 40 |  | > 40 | > 40 |  |  | 
